Converted amounts (≈) assume the structure as drawn.
How the values were obtained:
[1] = tested on: Bacillus subtilis; assay: Antibacterial activity against […] Bacillus subtilis ATCC9372 assessed as reduction in bacterial growth by broth microdilution assay; assay type: functional
[2] = tested on: Escherichia coli; assay: Antibacterial activity against Escherichia coli ATCC25922 assessed as reduction in bacterial growth by broth microdilution assay; assay type: functional
[3] = tested on: Enterococcus faecalis; assay: Antibacterial activity against penicillin-susceptible Enterococcus faecalis ATCC29212 assessed as reduction in bacterial growth by broth microdilution assay; assay type: functional
[4] = tested on: Klebsiella pneumoniae; assay: Antibacterial activity against erythromycin-susceptible Klebsiella pneumoniae ATCC10031 assessed as reduction in bacterial growth by broth microdilution assay; assay type: functional
[5] = tested on: Acinetobacter baumannii; assay: Antibacterial activity against Acinetobacter baumannii ATCC19606 assessed as reduction in bacterial growth by broth microdilution assay; assay type: functional
[6] = tested on: Pseudomonas aeruginosa; assay: Antibacterial activity against penicillin-susceptible Pseudomonas aeruginosa ATCC27853 assessed as reduction in bacterial growth by broth microdilution assay; assay type: functional
[7] = tested on: Staphylococcus aureus; assay: Antibacterial activity against Staphylococcus aureus ATCC31007 assessed as reduction in bacterial growth by broth microdilution assay; assay type: functional
[8] = tested on: Staphylococcus aureus; assay: Antibacterial activity against […] Staphylococcus aureus ATCC43300 assessed as reduction in bacterial growth by broth microdilution assay; assay type: functional
[9] = tested on: Staphylococcus aureus; assay: Antibacterial activity against Staphylococcus aureus ATCC25923 assessed as reduction in bacterial growth by broth microdilution assay; assay type: functional
[10] = tested on: Staphylococcus epidermidis; assay: Antibacterial activity against vancomycin-susceptible Staphylococcus epidermidis ATCC12228 assessed as reduction in bacterial growth by broth microdilution assay; assay type: functional
[11] = Hemolytic activity in RBC (unknown origin) assessed as hemolysis; assay type: toxicity, cell-based

Structure (SMILES) | MIC [1] [µg/mL] | MIC [2] [µg/mL] | MIC [3] [µg/mL] | MIC [4] [µg/mL] | MIC [5] [µg/mL] | MIC [6] [µg/mL] | MIC [7] [µg/mL] | MIC [8] [µg/mL] | MIC [9] [µg/mL] | MIC [10] [µg/mL] | HC90 ([11]; rbc) [µg/mL] | HC50 ([11]; red blood cells) [µg/mL]
CN[C@H](CC(C)C)C(=O)N[C@H]1C(=O)N[C@@H](CC(N)=O)C(=O)N[C@H]2C(=O)N[C@H]3C(=O)N[C@H](C(=O)N[C@H](C(=O)O)c4cc(O)cc(O)c4-c4cc3ccc4O)[C@H](O)c3ccc(c(Cl)c3)Oc3cc2cc(c3O[C@@H]2O[C@H](CO)[C@@H](O)[C@H](O)[C@H]2O[C@H]2C[C@](C)(N)[C@H](O)[C@H](C)O2)Oc2ccc(cc2Cl)[C@H]1O [VANCOMYCIN] | 0.5 (≈ 0.345 µM) | 128 (≈ 88.3 µM) | 2 (≈ 1.38 µM) | 128 (≈ 88.3 µM) | 16 (≈ 11 µM) | > 128 |  |  |  |  |  | 
COc1c2c(c3c(c1C(=O)/C=C/c1ccc(OCCC[N+](C)(C)CCCN)cc1)OC(C)(CCC=C(C)C)C=C3)OC(C)(CCC=C(C)C)C=C2 (stereo not drawn) | 8 | > 128 | > 128 | > 128 | > 128 | > 128 | 8 | 32 | 16 | 4 |  | 
CNCCN(C)C(=O)COc1c2c(c3c(c1C(C)=O)OC(C)(CCC=C(C)C)C=C3)OC(C)(CCC=C(C)C)C=C2 (stereo not drawn) | 16 (≈ 28.3 µM) | > 128 | 8 (≈ 14.2 µM) | 128 (≈ 227 µM) | 128 (≈ 227 µM) | 128 (≈ 227 µM) | 4 (≈ 7.08 µM) | 4 (≈ 7.08 µM) | 4 (≈ 7.08 µM) | 4 (≈ 7.08 µM) |  | 
CC(=O)c1c(OCC(=O)N(C)CCCN(C)C)c2c(c3c1OC(C)(CCC=C(C)C)C=C3)OC(C)(CCC=C(C)C)C=C2 (stereo not drawn) | 2 (≈ 3.37 µM) | > 128 | 2 (≈ 3.37 µM) | > 128 | 128 (≈ 216 µM) | 128 (≈ 216 µM) | 4 (≈ 6.75 µM) | 4 (≈ 6.75 µM) | 4 (≈ 6.75 µM) | 2 (≈ 3.37 µM) |  | 
CCNCCCOc1ccc(/C=C/C(=O)c2c(OC)c3c(c4c2OC(C)(CCC=C(C)C)C=C4)OC(C)(CCC=C(C)C)C=C3)cc1 (stereo not drawn) | 128 (≈ 200 µM) | > 128 | > 128 | > 128 | 128 (≈ 200 µM) | 128 (≈ 200 µM) | > 128 | > 128 | > 128 | > 128 |  | 
CC[N+](CC)(CC)CCCOc1ccc(/C=C/C(=O)c2c(OC)c3c(c4c2OC(C)(CCC=C(C)C)C=C4)OC(C)(CCC=C(C)C)C=C3)cc1 (stereo not drawn) | 64 | > 128 | 32 | > 128 | > 128 | > 128 | 64 | > 128 | 64 | 4 |  | 
CCCCN(CCCC)CCCNC(=O)COc1c2c(c3c(c1C(C)=O)OC(C)(CCC=C(C)C)C=C3)OC(C)(CCC=C(C)C)C=C2 (stereo not drawn) | 8 (≈ 12.1 µM) | > 128 | 4 (≈ 6.03 µM) | > 128 | > 128 | > 128 | 4 (≈ 6.03 µM) | 8 (≈ 12.1 µM) | 4 (≈ 6.03 µM) | 4 (≈ 6.03 µM) |  | 
COc1c2c(c3c(c1C(=O)/C=C/c1ccc(OCCC[N+](C)(C)CCCN(C)C)cc1)OC(C)(CCC=C(C)C)C=C3)OC(C)(CCC=C(C)C)C=C2 (stereo not drawn) | 4 | > 128 | 16 | > 128 | 32 | > 128 | 32 | 16 | 4 | 2 |  | 
CC(=O)c1c(OCC(=O)NCCCN2CCN(C)CC2)c2c(c3c1OC(C)(CCC=C(C)C)C=C3)OC(C)(CCC=C(C)C)C=C2 (stereo not drawn) | 2 (≈ 3.16 µM) | > 128 | 0.5 (≈ 0.789 µM) | > 128 | 128 (≈ 202 µM) | > 128 | 2 (≈ 3.16 µM) | 4 (≈ 6.31 µM) | 2 (≈ 3.16 µM) | 1 (≈ 1.58 µM) | 137.3 | 46
COc1c2c(c3c(c1C(=O)/C=C/c1ccc(OCCCN4CCOCC4)cc1)OC(C)(CCC=C(C)C)C=C3)OC(C)(CCC=C(C)C)C=C2 (stereo not drawn) | > 128 | > 128 | > 128 | > 128 | > 128 | > 128 | > 128 | > 128 | > 128 | > 128 |  | 
COc1c2c(c3c(c1C(=O)/C=C/c1ccc(OCCCNCCCN4CCN(C)CC4)cc1)OC(C)(CCC=C(C)C)C=C3)OC(C)(CCC=C(C)C)C=C2 (stereo not drawn) | 4 (≈ 5.32 µM) | > 128 | 8 (≈ 10.6 µM) | > 128 | > 128 | > 128 | 4 (≈ 5.32 µM) | 8 (≈ 10.6 µM) | 4 (≈ 5.32 µM) | 4 (≈ 5.32 µM) |  | 
CCN(CC)CCCNC(=O)COc1c2c(c3c(c1C(C)=O)OC(C)(CCC=C(C)C)C=C3)OC(C)(CCC=C(C)C)C=C2 (stereo not drawn) | 2 (≈ 3.3 µM) | > 128 | 2 (≈ 3.3 µM) | > 128 | > 128 | 128 (≈ 211 µM) | 4 (≈ 6.59 µM) | 4 (≈ 6.59 µM) | 4 (≈ 6.59 µM) | 2 (≈ 3.3 µM) |  | 
COc1c2c(c3c(c1C(=O)/C=C/c1ccc(OCCCN4CCSCC4)cc1)OC(C)(CCC=C(C)C)C=C3)OC(C)(CCC=C(C)C)C=C2 (stereo not drawn) | > 128 | > 128 | > 128 | > 128 | > 128 | > 128 | > 128 | > 128 | > 128 | > 128 |  | 
COc1c2c(c3c(c1C(=O)/C=C/c1ccc(OCCCN(CCCN(C)C)CCCN(C)C)cc1)OC(C)(CCC=C(C)C)C=C3)OC(C)(CCC=C(C)C)C=C2 (stereo not drawn) | 8 (≈ 10.2 µM) | > 128 | 8 (≈ 10.2 µM) | > 128 | > 128 | > 128 | 8 (≈ 10.2 µM) | 8 (≈ 10.2 µM) | 8 (≈ 10.2 µM) | 2 (≈ 2.56 µM) |  | 
CCN(CC)CCCNCCCOc1ccc(/C=C/C(=O)c2c(OC)c3c(c4c2OC(C)(CCC=C(C)C)C=C4)OC(C)(CCC=C(C)C)C=C3)cc1 (stereo not drawn) | 8 (≈ 11 µM) | > 128 | 32 (≈ 44.1 µM) | > 128 | > 128 | > 128 | 32 (≈ 44.1 µM) | 16 (≈ 22.1 µM) | 16 (≈ 22.1 µM) | 4 (≈ 5.52 µM) |  | 
CC(=O)c1c(OCC(=O)NCCCN2CCCC2)c2c(c3c1OC(C)(CCC=C(C)C)C=C3)OC(C)(CCC=C(C)C)C=C2 (stereo not drawn) | 16 (≈ 26.5 µM) | > 128 | 8 (≈ 13.2 µM) | > 128 | 128 (≈ 212 µM) | > 128 | 4 (≈ 6.61 µM) | 4 (≈ 6.61 µM) | 4 (≈ 6.61 µM) | 8 (≈ 13.2 µM) |  | 
COc1c2c(c3c(c1C(=O)/C=C/c1ccc(OCCCN(C)CCCN(C)C)cc1)OC(C)(CCC=C(C)C)C=C3)OC(C)(CCC=C(C)C)C=C2 (stereo not drawn) | > 128 | > 128 | 16 (≈ 22.5 µM) | > 128 | > 128 | > 128 | > 128 | > 128 | > 128 | 2 (≈ 2.81 µM) |  | 
